The text below walks through data of patent US7098231B2, “Viral polymerase inhibitors” (Boehringer Ingelheim International GmbH, priority 2003, dated 2006).

T1 sequence (P26663 2420-3010): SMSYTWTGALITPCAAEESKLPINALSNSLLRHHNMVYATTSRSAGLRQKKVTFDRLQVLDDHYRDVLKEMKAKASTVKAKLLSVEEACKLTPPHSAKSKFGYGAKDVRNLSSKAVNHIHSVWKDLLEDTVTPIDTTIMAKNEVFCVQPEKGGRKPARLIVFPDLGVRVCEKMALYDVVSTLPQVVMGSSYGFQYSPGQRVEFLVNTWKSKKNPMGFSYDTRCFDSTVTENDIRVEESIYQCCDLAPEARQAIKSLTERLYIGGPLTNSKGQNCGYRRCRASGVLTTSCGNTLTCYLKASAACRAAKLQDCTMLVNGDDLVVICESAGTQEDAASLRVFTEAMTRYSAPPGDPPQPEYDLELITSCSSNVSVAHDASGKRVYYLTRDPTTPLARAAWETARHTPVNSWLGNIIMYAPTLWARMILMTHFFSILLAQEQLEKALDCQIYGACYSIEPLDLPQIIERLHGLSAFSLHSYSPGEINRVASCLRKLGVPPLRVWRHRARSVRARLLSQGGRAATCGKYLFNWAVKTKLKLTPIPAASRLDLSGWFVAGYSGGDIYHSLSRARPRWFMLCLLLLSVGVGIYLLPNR

The test has as its target T1, hepatitis C virus RNA dependent polymerase (NS5B) (Hepatitis C virus genotype 1b, UniProt P26663).
T1 construct: The C-terminal polyprotein cleavage product, NS5B, is the elongation subunit of the HCV replicase
As to the kind of experiment: biochemical. As to the method:
Inhibition of NS5B RNA Dependent RNA Polymerase Activity
The compounds of the invention were tested for inhibitory activity against the hepatitis C virus RNA dependent polymerase (NS5B), according to the protocol described in WO 03/010141.
On to `COc1c(C(=O)NS(C)(=O)=O)ccc2c(C3CCCC3)c(-c3ccoc3)n(C)c12` [compound 201], for which the IC50 was less than 1000 nM.
`COc1c(C(=O)NS(=O)(=O)c2ccccc2)ccc2c(C3CCCC3)c(-c3ccoc3)n(C)c12` [compound 202]: the half-maximal inhibitory concentration (IC50) is less than 1000 nM.
In the case of `Cn1c(-c2ccoc2)c(C2CCCCC2)c2cc(C(=O)NS(C)(=O)=O)ccc21` [compound 203], the IC50 lay within 1000 to 20000 nM.
With `Cn1c(-c2ccoc2)c(C2CCCCC2)c2cc(C(=O)NS(=O)(=O)c3ccccc3)ccc21` [compound 204], the IC50 was 1000 to 20000 nM.
